Laboratory results as given in patent US12054447B2, “PCNA inhibitors” (City of Hope, priority 2015, dated 2024).

Experiments:
[1] = test system: PBMC; assay: Cell growth, CellTitor-Glo assay, 72 h; assay type: cell-based, human; details: Homo sapiens; PBMC (non-malignant)
Procedure: The human NB cell lines, SK-N-DZ, SK-N-BE(2)c, SK-N-AS, and LAN-5 obtained from the American Type Culture Collection (Rockville, MD), were cultured in DMEM with 10% fetal bovine serum (FBS), 100 units/ml penicillin, and 100 μg/ml streptomycin in the presence of 5% CO2 at 37° C. Human PBMCs from a healthy donor were purchased from Sanguine BioSciences (Valencia, CA) and grown in RPMI1640 with 10% FBS, 100 units/ml penicillin, 100 μg/ml streptomycin, and 10 ng/ml IL-2 in the presence of 5% CO2 at 37° C. Human embryonic progenitor cell line 7SM0032 was acquired from Millipore (Billerica, MA) and grown in the hEPM-1 Media Kit purchased from the same company. The plasmid pCBASce expresses the rare cutting I-SceI meganuclease. The U20S-derived cell lines, DR-GFP and EJ5-GFP, each contain a stably transfected reporter gene for DSB repair mediated by HR and end joining (EJ), respectively. These cell lines were cultured in DMEM medium with 10% FBS at 37° C. in the presence of 5% CO2.
To measure the effect of the compounds on cell growth, cells were seeded at 3×10^4/ml into a 96-well plate. Once attached, cells were treated with various concentrations of AOH1160 for 72 h. Cell growth was measured by the CellTitor-Glo assay (Promega, Madison, WI) according to the manufacturer's instructions. To measure apoptosis, cells were seeded at 1×10^5/ml onto a chamber slide. Once attached, cells were treated with the 500 nM AOH1160 for 24 h. Cells were fixed and analyzed by a TUNEL assay using the TMR red in situ cell death detection kit (Roche Diagnostics, Indianapolis, IN).

[2] = test system: A498; assay: NCI-60 panel test; assay type: cell-based; details: Homo sapiens; A498, NCI-60 5-dose study
Procedure: (§1) FIG. 7. NCI-60 panel test. The effect of AOH1160 on growth of the NCI-60 panel, which consists of 60 cancer cell lines representing 9 major cancer types, was tested in a 5-dose study. Shown are the Log IC50 values determined for each cell line. […] This study was performed by the National Institute of Cancer.
(§2) As observed in FIG. 7, the effect of AOH1160 on growth of the NCI-60 panel, which consists of 60 cancer cell lines representing 9 major cancer types, was tested in a 5-dose study. Shown are the Log IC50 values determined for each cell line.

[3] = test system: A549/ATCC; assay: NCI-60 panel test; assay type: cell-based; details: Homo sapiens, NCI-60 5-dose study
Procedure: as §1, §2

[4] = test system: ACHN; assay: NCI-60 panel test; assay type: cell-based; details: Homo sapiens, NCI-60 5-dose study
Procedure: as §1, §2

[5] = test system: BT-549; assay: NCI-60 panel test; assay type: cell-based; details: Homo sapiens; BT-549, NCI-60 5-dose study
Procedure: as §1, §2

[6] = test system: DU-145; assay: NCI-60 panel test; assay type: cell-based; details: Homo sapiens; DU-145, NCI-60 5-dose study
Procedure: as §1, §2

[7] = test system: EKVX; assay: NCI-60 panel test; assay type: cell-based; details: Homo sapiens, NCI-60 5-dose study
Procedure: as §1, §2

[8] = test system: HCT-15; assay: NCI-60 panel test; assay type: cell-based; details: Homo sapiens; HCT-15, NCI-60 5-dose study
Procedure: as §1, §2

[9] = test system: HL-60(TB); assay: NCI-60 panel test; assay type: cell-based; details: Homo sapiens, NCI-60 5-dose study
Procedure: as §1, §2

[10] = test system: HS 578T; assay: NCI-60 panel test; assay type: cell-based; details: Homo sapiens, NCI-60 5-dose study
Procedure: as §1, §2

[11] = test system: HT29; assay: NCI-60 panel test; assay type: cell-based; details: Homo sapiens, HT-29; HT29, NCI-60 5-dose study
Procedure: as §1, §2

[12] = test system: K-562; assay: NCI-60 panel test; assay type: cell-based; details: Homo sapiens, K562; K-562, NCI-60 5-dose study
Procedure: as §1, §2

[13] = test system: LOX IMVI; assay: NCI-60 panel test; assay type: cell-based; details: Homo sapiens, NCI-60 5-dose study
Procedure: as §1, §2

[14] = test system: MCF7; assay: NCI-60 panel test; assay type: cell-based; details: Homo sapiens; MCF7, NCI-60 5-dose study
Procedure: as §1, §2

[15] = test system: MDA-MB-231/ATCC; assay: NCI-60 panel test; assay type: cell-based; details: Homo sapiens, NCI-60 5-dose study
Procedure: as §1, §2

[16] = test system: MDA-MB-435; assay: NCI-60 panel test; assay type: cell-based; details: Homo sapiens; MDA-MB-435, NCI-60 5-dose study
Procedure: as §1, §2

[17] = test system: MDA-MB-468; assay: NCI-60 panel test; assay type: cell-based; details: Homo sapiens; MDA-MB-468, NCI-60 5-dose study
Procedure: as §1, §2

[18] = test system: NCI-H226; assay: NCI-60 panel test; assay type: cell-based; details: Homo sapiens; NCI-H226, NCI-60 5-dose study
Procedure: as §1, §2

[19] = test system: NCI-H23; assay: NCI-60 panel test; assay type: cell-based; details: Homo sapiens; NCI-H23, NCI-60 5-dose study
Procedure: as §1, §2

[20] = test system: NCI-H522; assay: NCI-60 panel test; assay type: cell-based; details: Homo sapiens; NCI-H522, NCI-60 5-dose study
Procedure: as §1, §2

[21] = test system: OVCAR-4; assay: NCI-60 panel test; assay type: cell-based; details: Homo sapiens; OVCAR-4, NCI-60 5-dose study
Procedure: as §1, §2

[22] = test system: OVCAR-5; assay: NCI-60 panel test; assay type: cell-based; details: Homo sapiens; OVCAR-5, NCI-60 5-dose study
Procedure: as §1, §2

[23] = test system: OVCAR-8; assay: NCI-60 panel test; assay type: cell-based; details: Homo sapiens; OVCAR-8, NCI-60 5-dose study
Procedure: as §1, §2

[24] = test system: RPMI-8226; assay: NCI-60 panel test; assay type: cell-based; details: Homo sapiens; RPMI-8226, NCI-60 5-dose study
Procedure: as §1, §2

[25] = test system: RXF 393; assay: NCI-60 panel test; assay type: cell-based; details: Homo sapiens; RXF 393, NCI-60 5-dose study
Procedure: as §1, §2

[26] = test system: SF-295; assay: NCI-60 panel test; assay type: cell-based; details: Homo sapiens; SF-295, NCI-60 5-dose study
Procedure: as §1, §2

[27] = test system: SK-MEL-28; assay: NCI-60 panel test; assay type: cell-based; details: Homo sapiens; SK-MEL-28, NCI-60 5-dose study
Procedure: as §1, §2

[28] = test system: SW-620; assay: NCI-60 panel test; assay type: cell-based; details: Homo sapiens; SW-620, NCI-60 5-dose study
Procedure: as §1, §2

[29] = test system: T-47D; assay: NCI-60 panel test; assay type: cell-based; details: Homo sapiens, T47D, NCI-60 5-dose study
Procedure: as §1, §2

SMILES	IC50 [1] [nM]	GI50 [2] [nM]	GI50 [3] [nM]	GI50 [4] [nM]	GI50 [5] [nM]	GI50 [6] [nM]	GI50 [7] [nM]	GI50 [8] [nM]	GI50 [9] [nM]	GI50 [10] [nM]	GI50 [11] [nM]	GI50 [12] [nM]	GI50 [13] [nM]	GI50 [14] [nM]	GI50 [15] [nM]	GI50 [16] [nM]	GI50 [17] [nM]	GI50 [18] [nM]	GI50 [19] [nM]	GI50 [20] [nM]	other results
COc1cccc(Oc2ccccc2NC(=O)CNC(=O)c2cccc3ccccc23)c1 [PCNA7/ AOH1996]	> 20000	115	316	398	295	708	1290	129	81.3	380	110	129	269	100	776	70.8	331	2510	741	178	GI50 [21]: 776 nM; GI50 [22]: 1120 nM; GI50 [23]: 692 nM; GI50 [24]: 955 nM; GI50 [25]: 166 nM; GI50 [26]: 112 nM; GI50 [27]: 4370 nM; GI50 [28]: 166 nM; GI50 [29]: 138 nM
O=C(CNC(=O)c1cccc2ccccc12)Nc1ccccc1Oc1cccc(O)c1 [PCNA2]	> 20000	5130	9550	17400	25100	9550	8910	3160	1320	5750	21400	1050	15100	4470	17800	759	3550	25100	15800	1620	GI50 [21]: 25100 nM; GI50 [22]: 25100 nM; GI50 [23]: 11500 nM; GI50 [24]: 8130 nM; GI50 [25]: 4170 nM; GI50 [26]: 2190 nM; GI50 [27]: 1860 nM; GI50 [28]: 3090 nM; GI50 [29]: 9770 nM
O=C(CNC(=O)c1cccc2ccccc12)Nc1ccccc1Oc1ccccc1 [AOH1160]	> 20000	257	457	832	407	324	776	245	269	363	288	70.8	309	309	977	42.7	324	2190	661	151	GI50 [21]: 4570 nM; GI50 [22]: 525 nM; GI50 [23]: 316 nM; GI50 [24]: 316 nM; GI50 [25]: 186 nM; GI50 [26]: 251 nM; GI50 [27]: 813 nM; GI50 [28]: 282 nM; GI50 [29]: 537 nM
COc1ccc(Oc2ccccc2NC(=O)CNC(=O)c2cccc3ccccc23)cc1 [PCNA6]	> 20000	562	1260	1510	1120	1020	1380	589	617	1700	575	145	1350	257	2240	83.2	457	4270	1290	195	GI50 [21]: 2240 nM; GI50 [22]: 2000 nM; GI50 [23]: 1150 nM; GI50 [24]: 1120 nM; GI50 [25]: 490 nM; GI50 [26]: 398 nM; GI50 [27]: 380 nM; GI50 [28]: 676 nM; GI50 [29]: 2510 nM
O=C(CNC(=O)c1cccc2ccccc12)Nc1ccccc1Oc1ccc(O)cc1 [PCNA1]	> 20000	1020	1480	1860	1620	1150	1170	912	708	1350	1000	501	1740	851	3160	162	550	4790	2140	851	GI50 [21]: 2820 nM; GI50 [22]: 6310 nM; GI50 [23]: 1320 nM; GI50 [24]: 977 nM; GI50 [25]: 501 nM; GI50 [26]: 617 nM; GI50 [27]: 851 nM; GI50 [28]: 912 nM; GI50 [29]: 1550 nM
